Laboratory results taken from the NIST ThermoML archive (doi:10.1016/j.jct.2005.10.011).
± gives the expanded uncertainty stated by the source.

What was measured:
[1] = xn = mol fraction of the nth substance listed; settings: 298.15 K, 101 kPa, Liquid
[2] = 298.15 K, 101.33 kPa, Liquid; for viscosity: Capillary tube (Ostwald / Ubbelohde) method
[3] = isobaric coefficient of expansion; settings: 298.15 K; 101.33 kPa; Liquid; vibrating tube densimeter

Question: With `CCCCCCCC` [octane] + Cc1ccccc1 as the molecule, how does the mass density ([1]; x2 = 0.0398) read?
Answer: 692.41 ± 1 kg/m3

Question: What about the mass density ([1]; x2 = 0.1999) of the same molecule?
Answer: 718.64 ± 0.98 kg/m3

Question: And the mass density ([1]; x2 = 0.2791)?
Answer: 731.62 ± 0.95 kg/m3

Question: And the mass density ([1]; x2 = 0.3596)?
Answer: 744.8 ± 0.92 kg/m3

Question: And the mass density ([1]; x2 = 0.4416)?
Answer: 758.23 ± 0.89 kg/m3

Question: And the mass density ([1]; x2 = 0.6048)?
Answer: 784.96 ± 0.82 kg/m3

Question: And the mass density ([1]; x2 = 0.6825)?
Answer: 797.69 ± 0.78 kg/m3

Question: What about the mass density ([1]; x2 = 0.7593) of the same molecule?
Answer: 810.27 ± 0.75 kg/m3

Question: What about the mass density ([1]; x2 = 0.8463) of the same molecule?
Answer: 824.52 ± 0.71 kg/m3

Question: What about the mass density ([1]; x2 = 0.9132) of the same molecule?
Answer: 835.49 ± 0.67 kg/m3

Question: What does the source list for `CCCCC` [pentane]?
Answer: mass density [2]: 621.22 ± 0.99 kg/m3; viscosity [2]: 0.216 ± 0.005 mPa·s; isobaric coefficient of expansion [3]: 0.0016 ± 3e-05 1/K

Question: Which mass density [2] does the source give for `Cc1ccccc1` [toluene] here?
Answer: 862.19 ± 0.62 kg/m3

Question: And the viscosity [2]?
Answer: 0.552 ± 0.006 mPa·s

Question: And the “isobaric coefficient of expansion” value [3]?
Answer: 0.00109 ± 2e-05 1/K

Question: For `CCCCCCCCC` [nonane] + Cc1ccccc1, which mass density ([1]; x2 = 0.0396) is on record?
Answer: 719.17 ± 1 kg/m3

Question: What about the mass density ([1]; x2 = 0.1938) of the same molecule?
Answer: 731.3 ± 0.97 kg/m3

Question: And the mass density ([1]; x2 = 0.2815)?
Answer: 739.97 ± 0.94 kg/m3

Question: What about the mass density ([1]; x2 = 0.3621) of the same molecule?
Answer: 749.08 ± 0.92 kg/m3

Question: What about the mass density ([1]; x2 = 0.4429) of the same molecule?
Answer: 759.3 ± 0.89 kg/m3

Question: What about the mass density ([1]; x2 = 0.6) of the same molecule?
Answer: 782.29 ± 0.82 kg/m3

Question: What about the mass density ([1]; x2 = 0.6627) of the same molecule?
Answer: 792.62 ± 0.79 kg/m3

Question: And the mass density ([1]; x2 = 0.7595)?
Answer: 809.87 ± 0.75 kg/m3

Question: And the mass density ([1]; x2 = 0.8399)?
Answer: 825.37 ± 0.71 kg/m3

Question: And the mass density ([1]; x2 = 0.9168)?
Answer: 841.23 ± 0.67 kg/m3

Question: With `CCCCCC` [hexane] as the molecule, how does the mass density [2] read?
Answer: 655.07 ± 0.93 kg/m3

Question: What about the viscosity [2] of the same molecule?
Answer: 0.295 ± 0.005 mPa·s

Question: And the “isobaric coefficient of expansion” value [3]?
Answer: 0.00138 ± 3e-05 1/K

Question: With `CCCCCCCCCC` [decane] as the molecule, how does the mass density [2] read?
Answer: 726.29 ± 0.81 kg/m3

Question: And the viscosity [2]?
Answer: 0.861 ± 0.008 mPa·s

Question: What about the “isobaric coefficient of expansion” value [3] of the same molecule?
Answer: 0.00104 ± 2e-05 1/K

Question: For `Cc1ccccc1` [toluene] + CCCCCCC, which mass density ([1]; x1 = 0.0398) is on record?
Answer: 678.24 ± 26 kg/m3

Question: And the mass density ([1]; x1 = 0.1999)?
Answer: 693.04 ± 25 kg/m3

Question: And the mass density ([1]; x1 = 0.2791)?
Answer: 721.62 ± 23 kg/m3

Question: And the mass density ([1]; x1 = 0.3596)?
Answer: 736.18 ± 22 kg/m3

Question: What about the mass density ([1]; x1 = 0.4416) of the same molecule?
Answer: 764.46 ± 20 kg/m3

Question: And the mass density ([1]; x1 = 0.6048)?
Answer: 779.21 ± 19 kg/m3

Question: And the mass density ([1]; x1 = 0.6825)?
Answer: 793.71 ± 18 kg/m3

Question: And the mass density ([1]; x1 = 0.7593)?
Answer: 808.12 ± 18 kg/m3

Question: And the mass density ([1]; x1 = 0.8463)?
Answer: 823.09 ± 17 kg/m3

Question: What about the mass density ([1]; x1 = 0.9132) of the same molecule?
Answer: 837.25 ± 16 kg/m3

Question: What does the source list for `CCCCCC` [hexane] + Cc1ccccc1?
Answer: mass density ([1]; x2 = 0.0406): 657.47 ± 0.92 kg/m3; mass density ([1]; x2 = 0.2028): 690.93 ± 0.86 kg/m3; mass density ([1]; x2 = 0.2804): 706.95 ± 0.84 kg/m3; mass density ([1]; x2 = 0.3596): 723.29 ± 0.81 kg/m3; mass density ([1]; x2 = 0.4423): 740.35 ± 0.79 kg/m3; mass density ([1]; x2 = 0.5997): 772.81 ± 0.74 kg/m3; mass density ([1]; x2 = 0.6757): 788.5 ± 0.71 kg/m3; mass density ([1]; x2 = 0.7597): 805.83 ± 0.69 kg/m3; mass density ([1]; x2 = 0.8412): 822.63 ± 0.67 kg/m3; mass density ([1]; x2 = 0.9199): 838.87 ± 0.65 kg/m3

Question: For `CCCCCCCCCC` [decane] + Cc1ccccc1, which mass density ([1]; x2 = 0.0405) is on record?
Answer: 730.61 ± 0.8 kg/m3

Question: What about the mass density ([1]; x2 = 0.1975) of the same molecule?
Answer: 740.67 ± 0.78 kg/m3

Question: What about the mass density ([1]; x2 = 0.2817) of the same molecule?
Answer: 747.82 ± 0.77 kg/m3

Question: And the mass density ([1]; x2 = 0.3619)?
Answer: 755.75 ± 0.76 kg/m3

Question: What about the mass density ([1]; x2 = 0.4394) of the same molecule?
Answer: 764.48 ± 0.75 kg/m3

Question: And the mass density ([1]; x2 = 0.6)?
Answer: 785.86 ± 0.72 kg/m3

Question: What about the mass density ([1]; x2 = 0.6811) of the same molecule?
Answer: 798.34 ± 0.7 kg/m3

Question: What about the mass density ([1]; x2 = 0.7615) of the same molecule?
Answer: 811.84 ± 0.68 kg/m3

Question: What about the mass density ([1]; x2 = 0.84) of the same molecule?
Answer: 826.07 ± 0.66 kg/m3

Question: And the mass density ([1]; x2 = 0.92)?
Answer: 841.69 ± 0.64 kg/m3

Question: Which mass density ([1]; x2 = 0.0415) does the source give for `CCCCC` [pentane] + Cc1ccccc1 here?
Answer: 629.87 ± 0.96 kg/m3

Question: What about the mass density ([1]; x2 = 0.2011) of the same molecule?
Answer: 668.27 ± 0.9 kg/m3

Question: And the mass density ([1]; x2 = 0.2799)?
Answer: 687.21 ± 0.87 kg/m3

Question: What about the mass density ([1]; x2 = 0.3647) of the same molecule?
Answer: 707.61 ± 0.84 kg/m3

Question: What about the mass density ([1]; x2 = 0.4341) of the same molecule?
Answer: 724.3 ± 0.81 kg/m3

Question: What about the mass density ([1]; x2 = 0.6011) of the same molecule?
Answer: 764.45 ± 0.75 kg/m3

Question: And the mass density ([1]; x2 = 0.6821)?
Answer: 783.95 ± 0.72 kg/m3

Question: What about the mass density ([1]; x2 = 0.7502) of the same molecule?
Answer: 800.32 ± 0.7 kg/m3

Question: What about the mass density ([1]; x2 = 0.8213) of the same molecule?
Answer: 817.43 ± 0.67 kg/m3

Question: And the mass density ([1]; x2 = 0.9137)?
Answer: 839.65 ± 0.65 kg/m3

Question: Which results are given for `CCCCCCCC` [octane]?
Answer: mass density [2]: 698.59 ± 1.7 kg/m3; viscosity [2]: 0.514 ± 0.007 mPa·s; isobaric coefficient of expansion [3]: 0.00115 ± 2e-05 1/K

Question: Which mass density [2] does the source give for `CCCCCCCCC` [nonane] here?
Answer: 714.01 ± 1.7 kg/m3

Question: And the viscosity [2]?
Answer: 0.665 ± 0.009 mPa·s

Question: What about the “isobaric coefficient of expansion” value [3] of the same molecule?
Answer: 0.00108 ± 2e-05 1/K

Question: With `CCCCCCC` [heptane] as the molecule, how does the mass density [2] read?
Answer: 679.69 ± 0.89 kg/m3

Question: What about the viscosity [2] of the same molecule?
Answer: 0.395 ± 0.005 mPa·s

Question: What about the “isobaric coefficient of expansion” value [3] of the same molecule?
Answer: 0.00124 ± 2e-05 1/K
